# Experimental data published in paper PMC6090053, “Substrate Specificity of Acyltransferase Domains for Efficient Transfer of Acyl Groups” (Frontiers in Microbiology, 2018).
# Assays:
# [1] = molecular target: T1, AT5monAIV of monensin PKS (Streptomyces virginiae, UniProt Q846X3); experiment: trans-acylation of holo-ACP10FkbA, HPLC-MS; type: biochemical; settings: 16 uM acyl-CoA, 16 uM holo-ACP10FkbA, 1.6 uM AT, pH 8.0, 25 C, 2 h
# T1 construct: gene monAIV; excised AT domain of module 5, synthetic gene, E. coli BL21(DE3), Ni-NTA
# T1 sequence (Q846X3 entry or part of it): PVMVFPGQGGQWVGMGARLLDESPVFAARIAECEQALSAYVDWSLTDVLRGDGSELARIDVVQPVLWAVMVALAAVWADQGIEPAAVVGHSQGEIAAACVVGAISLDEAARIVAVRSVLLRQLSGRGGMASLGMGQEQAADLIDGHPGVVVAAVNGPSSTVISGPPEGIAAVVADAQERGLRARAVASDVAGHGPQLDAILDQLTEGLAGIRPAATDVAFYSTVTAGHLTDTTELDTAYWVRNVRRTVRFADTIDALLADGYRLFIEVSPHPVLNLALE
# From the text: trans-acylation of holo-ACP10FkbA, HPLC-MS on AT5monAIV of monensin PKS
# [2] = molecular target: T2, AT3lsd12 of lasalocid PKS (Streptomyces lasalocidi, UniProt B6ZK65); experiment: self-acylation, HPLC-MS of intact protein; type: biochemical; settings: 200 uM acyl-CoA, 20 uM AT, pH 8.0, 25 C, 1 h; covalent acyl-enzyme
# T2 construct: gene lsd12; excised AT domain of module 3, synthetic gene, E. coli BL21(DE3), Ni-NTA
# T2 sequence (B6ZK65 entry or part of it): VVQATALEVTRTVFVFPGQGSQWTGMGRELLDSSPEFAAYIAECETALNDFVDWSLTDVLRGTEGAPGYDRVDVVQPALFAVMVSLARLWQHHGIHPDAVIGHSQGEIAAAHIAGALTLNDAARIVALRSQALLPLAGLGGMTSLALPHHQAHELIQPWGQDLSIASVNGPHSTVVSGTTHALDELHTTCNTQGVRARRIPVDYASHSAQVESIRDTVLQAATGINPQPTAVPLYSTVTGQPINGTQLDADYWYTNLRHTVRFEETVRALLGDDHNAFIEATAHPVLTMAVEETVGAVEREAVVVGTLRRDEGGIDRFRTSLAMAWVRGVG
# From the text: (§1) self-acylation, HPLC-MS of intact protein on AT3lsd12 of lasalocid PKS
# [3] = molecular target: T2, AT3lsd12 of lasalocid PKS; experiment: self-acylation, HPLC-MS of intact protein; type: biochemical; settings: 200 uM acyl-CoA, 20 uM AT, pH 8.0, 25 C, 1 h; covalent acyl-enzyme; remark: listed apart in the source
# From the text: as §1
# AT4FkbB of FK506 PKS [4] = molecular target: T3, AT4FkbB of FK506 PKS (Streptomyces tsukubensis, UniProt W8RMH0, Q6687A); experiment: self-acylation, HPLC-MS of intact protein; type: biochemical; settings: 200 uM acyl-CoA, 20 uM AT, pH 8.0, 25 C, 1 h; covalent acyl-enzyme
# T3 construct: gene fkbB; excised AT domain of module 4 of FkbB, E. coli BL21(DE3), Ni-NTA
# T3 sequence (W8RMH0 entry or part of it Q6687A): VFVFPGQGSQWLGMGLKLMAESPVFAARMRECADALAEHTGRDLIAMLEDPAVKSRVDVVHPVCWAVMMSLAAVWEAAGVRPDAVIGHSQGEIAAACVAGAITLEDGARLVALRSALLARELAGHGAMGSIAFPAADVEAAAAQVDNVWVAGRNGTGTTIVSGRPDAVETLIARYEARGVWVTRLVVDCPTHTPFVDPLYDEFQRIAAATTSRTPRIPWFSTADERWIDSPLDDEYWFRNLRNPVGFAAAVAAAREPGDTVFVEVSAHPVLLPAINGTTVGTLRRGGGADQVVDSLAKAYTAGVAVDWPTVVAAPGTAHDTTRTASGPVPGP
# From the text: (§2) self-acylation, HPLC-MS of intact protein on AT4FkbB of FK506 PKS
# AT4FkbB of FK506 PKS [5] = molecular target: T4, AT4FkbB of FK506 PKS (Streptomyces tsukubensis, UniProt W8RMH0, Q6687A/L6753I/V6754D/V6755T/F6771L); experiment: self-acylation, HPLC-MS of intact protein; type: biochemical; settings: 200 uM acyl-CoA, 20 uM AT, pH 8.0, 25 C, 1 h; covalent acyl-enzyme
# T4 construct: gene fkbB; excised AT domain of module 4 of FkbB, E. coli BL21(DE3), Ni-NTA
# T4 sequence (W8RMH0 entry or part of it Q6687A/L6753I/V6754D/V6755T/F6771L): as the sequence (W8RMH0 entry or part of it Q6687A) above, with L185I, V186D, V187T, F203L counted along it
# From the text: as §2
# AT4FkbB of FK506 PKS [6] = molecular target: T5, AT4FkbB of FK506 PKS (Streptomyces tsukubensis, UniProt W8RMH0, L6753I/V6754D/V6755T); experiment: self-acylation, HPLC-MS of intact protein; type: biochemical; settings: 200 uM acyl-CoA, 20 uM AT, pH 8.0, 25 C, 1 h; covalent acyl-enzyme
# T5 construct: gene fkbB; excised AT domain of module 4 of FkbB, E. coli BL21(DE3), Ni-NTA
# T5 sequence (W8RMH0 entry or part of it L6753I/V6754D/V6755T): as the sequence (W8RMH0 entry or part of it Q6687A) above, with A119Q, L185I, V186D, V187T counted along it
# From the text: as §2
# AT4FkbB of FK506 PKS [7] = molecular target: T6, AT4FkbB of FK506 PKS (Streptomyces tsukubensis, UniProt W8RMH0); experiment: self-acylation, HPLC-MS of intact protein; type: biochemical; settings: 200 uM acyl-CoA, 20 uM AT, pH 8.0, 25 C, 1 h; covalent acyl-enzyme at Ser89
# T6 construct: gene fkbB; excised AT domain of module 4 of FkbB, E. coli BL21(DE3), Ni-NTA
# T6 sequence (W8RMH0 entry or part of it): as the sequence (W8RMH0 entry or part of it Q6687A) above, with A119Q counted along it
# From the text: as §2
# AT4FkbB of FK506 PKS [8] = molecular target: T7, AT4FkbB of FK506 PKS (Streptomyces tsukubensis, UniProt W8RMH0, V6755K); experiment: self-acylation, HPLC-MS of intact protein; type: biochemical; settings: 200 uM acyl-CoA, 20 uM AT, pH 8.0, 25 C, 1 h; covalent acyl-enzyme
# T7 construct: gene fkbB; excised AT domain of module 4 of FkbB, E. coli BL21(DE3), Ni-NTA
# T7 sequence (W8RMH0 entry or part of it V6755K): as the sequence (W8RMH0 entry or part of it Q6687A) above, with A119Q, V187K counted along it
# From the text: as §2
# [9] = molecular target: T1, AT5monAIV of monensin PKS; experiment: self-acylation, HPLC-MS of intact protein; type: biochemical; settings: 200 uM acyl-CoA, 20 uM AT, pH 8.0, 25 C, 1 h; covalent acyl-enzyme
# From the text: (§3) self-acylation, HPLC-MS of intact protein on AT5monAIV of monensin PKS
# AT4FkbB of FK520 PKS [10] = molecular target: T8, AT4FkbB of FK520 PKS (Streptomyces hygroscopicus, UniProt Q9KIE0); experiment: self-acylation, HPLC-MS of intact protein; type: biochemical; settings: 200 uM acyl-CoA, 20 uM AT, pH 8.0, 25 C, 1 h; covalent acyl-enzyme
# T8 construct: gene fkbB; excised AT domain of module 4 of FkbB, synthetic gene, E. coli BL21(DE3), Ni-NTA
# T8 sequence (Q9KIE0 entry or part of it): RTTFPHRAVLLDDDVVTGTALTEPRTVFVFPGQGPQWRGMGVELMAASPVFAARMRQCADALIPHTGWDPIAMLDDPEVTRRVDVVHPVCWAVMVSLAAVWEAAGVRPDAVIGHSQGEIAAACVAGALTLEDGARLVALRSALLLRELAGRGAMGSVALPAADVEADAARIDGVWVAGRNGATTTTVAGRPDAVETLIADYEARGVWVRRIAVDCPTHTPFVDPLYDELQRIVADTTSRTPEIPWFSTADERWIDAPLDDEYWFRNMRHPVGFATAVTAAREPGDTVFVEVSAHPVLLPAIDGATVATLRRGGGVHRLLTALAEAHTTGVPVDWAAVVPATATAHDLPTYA
# From the text: (§4) self-acylation, HPLC-MS of intact protein on AT4FkbB of FK520 PKS
# AT4FkbB of FK520 PKS [11] = molecular target: T8, AT4FkbB of FK520 PKS; experiment: self-acylation, HPLC-MS of intact protein; type: biochemical; settings: 200 uM acyl-CoA, 20 uM AT, pH 8.0, 25 C, 1 h; covalent acyl-enzyme; remark: listed apart in the source
# From the text: as §4
# AT4FkbB of FK520 PKS [12] = molecular target: T8, AT4FkbB of FK520 PKS; experiment: self-acylation, HPLC-MS of intact protein; type: biochemical; settings: 200 uM acyl-CoA, 20 uM AT, pH 8.0, 25 C, 1 h; covalent acyl-enzyme; remark: listed apart in the source
# From the text: as §4
# [13] = self-acylation, HPLC-MS of intact protein; type: biochemical, Streptomyces virginiae; settings: 200 uM acyl-CoA, 20 uM AT, pH 8.0, 25 C, 1 h; covalent acyl-enzyme
# From the text: as §3
compound,measurement,setting,value
CC(C(=O)O)C(=O)SCCNC(=O)CCNC(=O)[C@H](O)C(C)(C)COP(=O)(O)OP(=O)(O)OC[C@H]1O[C@@H](n2cnc3c(N)ncnc32)[C@H](O)[C@@H]1OP(=O)(O)O (some centres unmarked) [MM-CoA],Trans-acylation reaction (%) / MM-ACP10FkbA,[1],51.2%
C=CCC(C(=O)O)C(=O)SCCNC(=O)CCNC(=O)[C@H](O)C(C)(C)COP(=O)(O)OP(=O)(O)OC[C@H]1O[C@@H](n2cnc3c(N)ncnc32)[C@H](O)[C@@H]1OP(=O)(O)O (some centres unmarked) [allmal-CoA],Self-acylation reaction (%) / Allmal-AT4FkbB^∗,[2],17.8%
same,Self-acylation reaction (%) / Allmal-AT4FkbB^∗,[3],41.4%
same,Self-acylation reaction (%) / Allmal-AT4^∗FkbB,AT4FkbB of FK506 PKS [4],29.2%
same,Self-acylation reaction (%) / Allmal-AT4^∗FkbB,AT4FkbB of FK506 PKS [5],27.1%
same,Self-acylation reaction (%) / Allmal-AT4^∗FkbB,AT4FkbB of FK506 PKS [6],28.0%
same,Self-acylation reaction (%) / Allmal-AT4^∗FkbB,AT4FkbB of FK506 PKS [7],69.7%
same,Self-acylation reaction (%) / Allmal-AT4^∗FkbB,AT4FkbB of FK506 PKS [8],78.8%
same,Self-acylation reaction (%) / Allmal-AT4FkbB^∗,[9],49.8%
same,Self-acylation reaction (%) / Allmal-AT4FkbB^∗,AT4FkbB of FK520 PKS [10],58.2%
same,Self-acylation reaction (%) / Allmal-AT4FkbB^∗,AT4FkbB of FK520 PKS [11],31.5%
same,Self-acylation reaction (%) / Allmal-AT4FkbB^∗,AT4FkbB of FK520 PKS [12],61.3%
CCC(C(=O)O)C(=O)SCCNC(=O)CCNC(=O)[C@H](O)C(C)(C)COP(=O)(O)OP(=O)(O)OC[C@H]1O[C@@H](n2cnc3c(N)ncnc32)[C@H](O)[C@@H]1OP(=O)(O)O (some centres unmarked) [ethmal-CoA],Self-acylation reaction (%) / Ethmal-AT4FkbB^∗,[13],63.7%
same,Self-acylation reaction (%) / Ethmal-AT4FkbB^∗,[2],78.1%
same,Self-acylation reaction (%) / Ethmal-AT4^∗FkbB,AT4FkbB of FK506 PKS [7],62.0%
same,Self-acylation reaction (%) / Ethmal-AT4^∗FkbB,AT4FkbB of FK506 PKS [8],32.3%
same,Self-acylation reaction (%) / Ethmal-AT4FkbB^∗,AT4FkbB of FK520 PKS [11],65.1%
